# Results reported in patent US7214713B2, “Antraquinone compositions as anticancer compositions and nutrition supplements and methods of making and using them” (priority 2000, dated 2007).
# Tested on: ascitic form of Gardner lymphosarcoma (IP-LsG)
# Test: anti-cancer screening in mice with ascitic Gardner lymphosarcoma
# Type: in vivo
# Conditions: for weight coefficient (weight loss in comparison with the control group): one week after the start of the therapy
# Method: The red colorant isolated under the above-described conditions and having the above-mentioned characteristics was subjected to a screening study for anti-cancer properties.
# The tested substance was administered to mice suffering from the ascitic form of Gardner lymphosarcoma (IP-LsG). 6-(2-(2-hydroxyethyl)aminoethyl)-5,11-dioxo-5,6-dihydro-11H-indeno[1,2-c]isoquinoline hydrochloride having the summary formula C20H18N2O3.HCl was used as a reference substance.
# Female C3H mice weighing 26.1 to 27.3 g were used. The animals were kept in plastic containers and fed with the NOE diet made by RATIO, s.r.o., Breclav, Czech Republic, and with potable water ad libitum. The temperature in the room was maintained, the relative humidity was 60%, and the light regimen was not regulated.
# The Gardner lymphosarcoma is maintained in the ascitic form in the C3H mice by inoculating ascitic cells removed a week after the previous inoculation by puncturing the abdominal cavity. The mice are administered with 0.2 ml of the ascites diluted with an isotonic solution of sodium chloride for injections intraperitoneally 10 to 20 times. The cell material for tests is obtained by puncturing the abdominal cavity on the seventh day following inoculation. For the therapeutic test, the inoculation with the ascites diluted with an isotonic solution of sodium chloride for injections was made by administering 10^7 cells in a volume of 0.2 ml i.p. to each animal.
# The C3H mice were over 6 weeks old, weighing 26.1 to 27.3 g, in groups of 10 animals, the control was-common. Two dosage groups were used for each route of administration and for one substance tested.
# The dosage levels: 200 and 100 mg/kg×5 p.o. and 100 and 50 mg/kg×5 s.c. in a volume 0.2 to 0.4 ml and 0.2 to 0.4 ml p.o. (reference substance), resp. for 20 g body weight. Frequency of administration: 1× daily beginning on the first day. The tested substance was administered in a continuous pattern on the 1st to 5th days in doses given in Table 1 and the reference substance was administered p.o. once on the 1st day.
# After the administration was finished, the animals were left for monitoring the survival time. The dose dependence of the survival time was evaluated in comparison with the non-administered control. Time as a biological response was currently evaluated by means of the non-parametric test according to Hájek (Fabián V.: Základní statistické metody (“Basic Statistical Methods”), NCSAV, Prague 1963).
# After the experiment was complete, time in case of point estimates was evaluated using the test of identity of two means (Student t-test) under the presumption of logarithmic-normal distribution of time values and under the presumption of various unknown variances (Roth Z., Josífko M., Malý V., Trcka V.: Statistické metody v experimentální medicíne (“Statistical Methods in Experimental Medicine”); p. 278, SZN, Prague 1962). Geometrical averages were calculated from the individual values of time to death. The differences In average values in which the value of the test criterion has exceeded the critical value for the significance level of 5% were designated as statistically significant.
# [1] = 100 mg/kg p.o. once on the 1st day
# [2] = 200 mg/kg p.o. once on the 1st day
compound,measurement,setting,value
"Cl.O=C1c2ccccc2-c2c1c1ccccc1c(=O)n2CCNCCO [reference, 6-(2-(2-hydroxyethyl)aminoethyl)-5,11-dioxo-5,6-dihydro-11H-indeno[1,2-c]isoquinoline hydrochloride]",median of time to death,[1],>48.5 days
same,survival LTS (number of animals surviving on day 65),[1],5/10
same,weight coefficient (weight loss in comparison with the control group),[1],−6.67%
same,median of time to death,[2],>65.0 days
same,survival LTS (number of animals surviving on day 65),[2],10/10
same,weight coefficient (weight loss in comparison with the control group),[2],−14.63%
